Test results from patent publication US9732226B2, “Azo compound, ink containing azo compound, and display and electronic paper containing the ink” (MITSUBISHI CHEMICAL CORPORATION, priority 2012, dated 2017).
In brackets after ≈: the same amount, converted by molar mass. Each block holds one compound with its values, some of them ahead of it.

Legend:
Type in all cases: physicochemical
[1] = Solubility C in n-decane at 5° C. (saturated solution, absorbance); conditions: for εC / ε · C: product of ε and solubility C in n-decane at 5° C.; for C: solubility in n-decane at 5° C.; for solubility at 24 h: organic solvent or mixture, thermodynamic from solid, saturation solubility in n-decane at 5° C.
Experimental: <Method for Measurement of Solubility C>
The solubility C of Example Compounds 1 to 4 and Comparative Example Compound in n-decane solution was measured as follows.
The compound was added to the solvent until the undissolved residue remained, and ultrasonically treated at 30° C. for 30 minutes. After left at 5° C. for 24 hours, this was centrifuged and filtered through a 0.1 μm-filter using an ultracompact centrifuge (centrifugal force, 5200×g). The resultant saturated solution was diluted to have a suitable concentration, and using a quartz cell having an optical length of 10 mm, the absorption spectrum thereof was measured with Hitachi Spectrophotometer U-4100. From the relationship between the absorbance at the absorption maximum wavelength λmax (nm) and the previously-determined molar absorbance coefficient ε([…]) thereof, the concentration of each compound was determined, and the solubility C (mol·L^−1) at 5° C. and εC (cm^−1) thereof were calculated.

[2] = Absorption spectrum of n-decane solution (absorption maximum wavelength, molar absorbance coefficient, color); conditions: for ε / λmax / ε (molar absorbance coefficient): n-decane solution; for ε / λmax: same manner as for Example Compound 1; for Maximum Absorption Wavelength: 1 mg in 100 ml n-decane, quartz cell; for Color Tone: color of the solution of the compound in n-decane; for ε (molar absorbance coefficient): at absorption maximum wavelength
Experimental: <Method for Measurement of Absorption Maximum Wavelength λMax, Molar Absorbance Coefficient ε>
One mg of each of Example Compounds 1 to 4 and Comparative Example Compound was dissolved in 100 ml of n-decane solution to prepare a solution thereof, and using a quartz cell, the absorption spectrum thereof was measured with Hitachi Spectrophotometer U-4100. The resultant spectrum of the compound gave the absorption maximum wavelength λmax (nm) and the molar absorbance coefficient ε(L·mol^−1·cm^−1) thereof.

[3] = Solubility of solvent in water; conditions: pure water, thermodynamic from solid, 25° C.
Experimental: (§1) The solvent was sandwiched between opposed parallel-plate ITO electrode-attached glass substrates having an electrode spacing of 50 μm, and using LCR Meter ZN2371 (manufactured by NF Corporation), the equivalent parallel capacitance thereof was measured at a measurement temperature of 22° C. and at a frequency of 1 kHz, given a test signal voltage of 5 V. Through calculation according to the following equation, the relative permittivity of the solvent was determined. Relative Permittivity=(equivalent parallel capacitance)×(electrode spacing)/(electrode area)/vacuum permittivity(ε0) <Method for Measurement of Solubility of Solvent in Water>
30 g of pure water and 8 g of the solvent were put into a 110 ml-vial, and shaken in a thermostat bath at 25° C. at 200 shake/min for 4 hours. After thus shaken, the liquid was centrifuged (6000×g, 5 minutes), the aqueous layer was sampled, and the concentration of the dissolved solvent was quantified through gas chromatography.
For a mixed solvent comprising two or more different types of solvents, the solubility in water was determined by multiplying the solubility in water of each solvent constituting the mixed solvent by the molar fraction of each solvent, followed by totaling the resultant data. […]

[4] = Relative permittivity of solvent; conditions: 22° C., measurement frequency 1 kHz
Experimental: as §1, with “<Method for Measurement of Relative Permittivity of Solvent> The” for “The”

solubility at 24 h [1]: ≤ 0.01 mM | ε · C [1]: 10 or less cm^−1 | Maximum Absorption Wavelength [2]: 512 nm | Color Tone [2]: red | ε (molar absorbance coefficient) [2]: 34,000 L · mol^−1 · cm^−1
Compound: C=CCn1c(N=Nc2ccc(N(CCC)CCC)cc2NC(C)=O)nc(C#N)c1C#N [Comparative Example Compound, reference compound]

solubility at 24 h [1]: 350 mM (≈ 224 mg/mL) | ε · C [1]: 26,000 cm^−1 | Maximum Absorption Wavelength [2]: 585 nm | Color Tone [2]: violet | ε (molar absorbance coefficient) [2]: 75,000 L · mol^−1 · cm^−1
Compound: CCCCC(=O)Nc1cc(N(CC(CC)CCCC)CC(CC)CCCC)ccc1N=Nc1c(C#N)cc(C(F)(F)F)cc1C#N (stereo not drawn) [Example Compound 3]

εC [1]: 3900 cm⁻¹ | C [1]: 0.086 mol/L | ε [2]: 4600 L/mol/cm | λmax [2]: 530 nm
Compound: CCCCC(CC)CN(CC(CC)CCCC)c1ccc(N=Nc2snc(CC)c2C#N)c(C)c1 (stereo not drawn) [Red Compound A]

εC [1]: 1900 cm⁻¹ | C [1]: 0.076 mol/L | ε [2]: 25000 L/mol/cm | λmax [2]: 417 nm
Compound: CCCCc1nn(C(C)(C)C)c(O)c1N=Nc1ccc(N=Nc2ccccc2)cc1 [Yellow Compound A, reference compound]

Continued, compound first:

Compound: CCCCC(CC)CNc1ccc(NCC(CC)CCCC)c2c1C(=O)c1ccc(C(=O)OCC(C)C)cc1C2=O (stereo not drawn) [Blue Compound A, reference compound]
εC [1]: 3200 cm⁻¹ | C [1]: 0.170 mol/L | ε [2]: 19000 L/mol/cm | λmax [2]: 668 nm

Compound: CCCCC(CC)CN(CC(CC)CCCC)c1ccc(N=Nc2c(C#N)cc(C(F)(F)F)cc2C#N)c(NC(C)=O)c1 (stereo not drawn) [Example Compound 1]
solubility at 24 h [1]: 20 mM (≈ 11.9 mg/mL) | ε · C [1]: 1,600 cm^−1 | Maximum Absorption Wavelength [2]: 584 nm | Color Tone [2]: violet | ε (molar absorbance coefficient) [2]: 80,000 L · mol^−1 · cm^−1

Compound: CCCCC(CC)COC(=O)c1cc(C#N)c(N=Nc2ccc(N(CC(CC)CCCC)CC(CC)CCCC)cc2NC(=O)CC)c(C#N)c1 (stereo not drawn) [Example Compound 2]
solubility at 24 h [1]: 160 mM (≈ 112 mg/mL) | ε · C [1]: 13,000 cm^−1 | Maximum Absorption Wavelength [2]: 591 nm | Color Tone [2]: violet | ε (molar absorbance coefficient) [2]: 80,000 L · mol^−1 · cm^−1

Compound: CCCCC(CC)COC(=O)c1cc(C#N)c(N=Nc2ccc(N(CC(CC)CCCC)CC(CC)CCCC)cc2NC(C)=O)c(C#N)c1 (stereo not drawn) [Example Compound 4]
solubility at 24 h [1]: 75 mM (≈ 51.4 mg/mL) | ε · C [1]: 6,000 cm^−1 | Maximum Absorption Wavelength [2]: 590 nm | Color Tone [2]: violet | ε (molar absorbance coefficient) [2]: 80,000 L · mol^−1 · cm^−1

Compound: CCCCCCCCCC [n-decane]
solubility at 4 h [3]: ≤ 1 µg/mL | relative permittivity [4]: 2.0
